Measured values taken from patent publication US20080051350A1, “Therapeutic Use for a Group of Sulphated Polysaccharides” (Bioiberica, S.A., priority 2004, published 2008).
Marks after values point to notes of the source that are not given here.

What was measured:
Type in all cases: cell-based
[1] = tested on: Human articular chondrocytes; assay: Synthesis of extracellular aggrecans determined by incorporation of 35S in primary culture of human chondrocytes in agarose gel; settings: for 35S incorporated into the aggrecans associated with the cells / 35S incorporated into the inter-territorial matrix's aggrecans / 35S incorporated into the re-synthesised aggrecans (total): 48 h
Method: Human articular chondrocytes were isolated following the methods described by W. T. Green Jr. (Clin. Orthop., 75, 248-260 (1971)) and K. E. Kuettner et al. (J. Cell. Biol., 93, 743-750 (1982)).
These chondrocytes were cultured in an agarose gel following the method described by P. D. Benya et al. (Cell, 30, 215-224, (1982)), and modified by G. Verbruggen et al. (Clin. Exp. Rheumatol., 8, 371-378 (1990)) and by M. Cornelissen et al. (J. Tiss. Cult. Meth., 15, 139-146 (1993)).
The synthesis of aggrecans was determined by the incorporation of ^35S, using labelled sodium sulphate Na2^35SO4 as radioactive precursor. After two weeks of culture, 10 μCi/mL of radio-labelled precursor were introduced in the culture medium for 48 h, as was the compound to be assayed (inulin polysulphate in Chemical Example 1) at different concentrations (0.0, 0.1, 0.5, 1.0, 5.0 μg/mL).
The synthesised ^35S aggrecans once again partially accumulated in the intercellular agarose matrix or else were released in the incubation medium.
Once the incubation period ended, the agarose gel was mechanically broken down and subsequently digested by means of 3 mL of a 50 U/mL […] solution in a 0.067 M phosphate buffer, at pH 6.0, in the presence of proteinase inhibitors.
The suspension thus produced was centrifuged; the supernatant containing the inter-territorial matrix's ^35S aggrecans and the incubation medium containing the ^35S aggrecan metabolites released in the extracellular matrix were subsequently united by means of chromatography.
The residue, which contained the chondrocytes and the associated ^35S aggrecans, was treated for 48 hours with 1 mL of a 4.0 M guanidium chloride solution in a 0.05M acetate buffer at pH 5.8 containing the proteinase inhibitors.
The purpose of this operation is to extract the ^35S aggrecans associated with the cells. The solution produced was centrifuged in order to separate the cells from the supernatant, which was subsequently separated by means of chromatography. The chromatography operations for the different fractions produced were performed on Sephadex G25 gel in a phosphate buffer pH 6.8 containing 0.01 M of Na2SO4, in order to separate the ^35S aggrecans from the free Na2^35SO4.
The radioactivity of each of the macromolecular eluants produced was measured and related to the number of chondrocytes contained in the initial culture, expressed in pg of ^35SO4 incorporated into the aggrecans, per million chondrocytes per hour.

[2] = tested on: human articular chondrocytes treated with interleukin-1 (IL-1); assay: Aggrecans associated with IL-1-treated chondrocytes, measured by immunocytochemistry / flux cytometry; settings: for Mean fluorescence intensity in the chondrocytes after labelling of aggrecan, M ± SD: one week of culture
Method: The human articular chondrocytes were isolated and cultured following the previously described methods.
The accumulation of aggrecans associated with the chondrocytes was measured, after a week of culture, by means of the immunocytochemistry technique described by L. Wang et al. (Osteoarthritis Cart., 9, 248-260 (2001)). The chondrocytes were treated with interleukin-1 (IL-1) in order to simulate a situation of inflammation and catabolism. The inulin polysulphate in Chemical Example 1 was added jointly with IL-1.
Once the incubation period ended, the chondrocytes were released from the agarose gel following the described method. The chondrocytes and the associated aggrecans were studied by means of flux cytometry using monoclonal antibodies specifically directed against the aggrecans' proteic part.

[3] = tested on: rat chondrosarcoma cell line called LTC; assay: Inhibition of aggrecan degradation induced by IL-1α (Western Blot, anti-aggrecan antibody G1 / NITGE); settings: 100 μg/mL, in the presence or not of IL-1α (10 ng/mL), 4 days, FIG. 1
Method: The assays were performed on chondrocyte cultures from a rat chondrosarcoma cell line called LTC.
The LTC cells were kept in a monolayer culture in a Gibco DMEM medium (Dulbecco's Modification of Eagle's Medium) (containing 4.5 g/L of glucose) supplemented with sodium bicarbonate (3.7 g/L), glutamine (2 mM), ascorbic acid (50 mg/L), gentamicin (50 mg/L), and bovine fetal serum Hyalone (10%), at pH 7.4.
The confluent LTC cell cultures were trypsinised and 40,000 cells per 0.5 mL of culture were seeded in 48-well plates. They were maintained for 5 days, during which time they deposited 15-30 μg of glycosaminoglycans (GAG) in each well.
The medium was separated, the cell membranes were washed by adding 5×1 mL of a catabolic medium {DMEM+4.5 g/L glucose supplemented with sodium bicarbonate (3.7 g/L), glutamine (2 mM), and 10 ng/mL of IL-1α (interleukin-1α) at pH 7.4). […]
For the Western Blot, 20 μL of 50 mM tris-acetate at pH 7.3 were added to each well. […] 25 μL-fractions of the supernatant were separated by electrophoresis (gel gradient 8-12% SDS PAGE) and analysed by means of a Western Blot using anti-aggrecan antibody G1. […] The antiserum was used at a 1:5,000 dilution and the peroxidase-conjugated goat anti-(rabbit IgG) was detected by means of the Amersham ECL Kit.

[4] = Donor F45, IL-1 + IPS 0.5 μg/mL
[5] = Donor F45, IL-1 + IPS 1.0 μg/mL
[6] = Donor F45, IL-1 + IPS 2.5 μg/mL
[7] = Donor M32, IL-1 + IPS 1.0 μg/mL
[8] = Donor M32, IL-1 + IPS 2.5 μg/mL
[9] = Donor M32, IL-1 + IPS 5.0 μg/mL

## Inulin Polysulphate Sodium Salt [IPS]
[1]; 35S incorporation, concentrations 0.1-5.0 μg/mL tested
  Concentration of optimum activity on aggrecan synthesis: about 0.5 μg/mL
[1]; IPS 0.1 μg/mL
  % Total: aggrecans associated with the cells with respect to the total quantity of aggrecans: 23.5%
  % Total: inter-territorial matrix's aggrecans with respect to the total quantity of aggrecans: 66.2%
  % Total: re-synthesised aggrecans with respect to the total quantity of aggrecans: 100%
  % change with respect to the non-treated control, aggrecans associated with the cells: 15.1%
  % change with respect to the non-treated control, re-synthesised aggrecans (total): 2.9%
  % change with respect to the untreated control, inter-territorial matrix's aggrecans: 1.4%
  35S incorporated into the aggrecans associated with the cells: 2,737 pg ^35S/10^6 cells/h
  35S incorporated into the inter-territorial matrix's aggrecans: 7,818 pg ^35S/10^6 cells/h
  35S incorporated into the re-synthesised aggrecans (total): 11,756 pg ^35S/10^6 cells/h
[1]; IPS 0.5 μg/mL
  % Total: aggrecans associated with the cells with respect to the total quantity of aggrecans: 18.4%
  % Total: inter-territorial matrix's aggrecans with respect to the total quantity of aggrecans: 70.7%
  % Total: re-synthesised aggrecans with respect to the total quantity of aggrecans: 100%
  % change with respect to the non-treated control, aggrecans associated with the cells: 28.8* %
  % change with respect to the non-treated control, re-synthesised aggrecans (total): 51.5* %
  % change with respect to the untreated control, inter-territorial matrix's aggrecans: 60.6%
  35S incorporated into the aggrecans associated with the cells: 3,064* pg ^35S/10^6 cells/h
  35S incorporated into the inter-territorial matrix's aggrecans: 12,383 pg ^35S/10^6 cells/h
  35S incorporated into the re-synthesised aggrecans (total): 17,312* pg ^35S/10^6 cells/h
[1]; IPS 1.0 μg/mL
  % Total: aggrecans associated with the cells with respect to the total quantity of aggrecans: 17.9%
  % Total: inter-territorial matrix's aggrecans with respect to the total quantity of aggrecans: 70.7%
  % Total: re-synthesised aggrecans with respect to the total quantity of aggrecans: 100%
  % change with respect to the non-treated control, aggrecans associated with the cells: 11.9%
  % change with respect to the non-treated control, re-synthesised aggrecans (total): 33.7* %
  % change with respect to the untreated control, inter-territorial matrix's aggrecans: 41.2* %
  35S incorporated into the aggrecans associated with the cells: 2,662 pg ^35S/10^6 cells/h
  35S incorporated into the inter-territorial matrix's aggrecans: 10,887* pg ^35S/10^6 cells/h
  35S incorporated into the re-synthesised aggrecans (total): 15,281* pg ^35S/10^6 cells/h
[1]; IPS 5.0 μg/mL
  % Total: aggrecans associated with the cells with respect to the total quantity of aggrecans: 17.4%
  % Total: inter-territorial matrix's aggrecans with respect to the total quantity of aggrecans: 67.9%
  % Total: re-synthesised aggrecans with respect to the total quantity of aggrecans: 100%
  % change with respect to the non-treated control, aggrecans associated with the cells: 14.2%
  % change with respect to the non-treated control, re-synthesised aggrecans (total): 3.0%
  % change with respect to the untreated control, inter-territorial matrix's aggrecans: 8.2%
  35S incorporated into the aggrecans associated with the cells: 2,041 pg ^35S/10^6 cells/h
  35S incorporated into the inter-territorial matrix's aggrecans: 8,340 pg ^35S/10^6 cells/h
  35S incorporated into the re-synthesised aggrecans (total): 12,106 pg ^35S/10^6 cells/h
[2]; [4]
  % Change with respect to the group treated with IL-1 (IL-1 = 100.0): 112.7* %
  Mean fluorescence intensity in the chondrocytes after labelling of aggrecan, M ± SD: 20.4 ± 0.2
[2]; [5]
  % Change with respect to the group treated with IL-1 (IL-1 = 100.0): 147.0* %
  Mean fluorescence intensity in the chondrocytes after labelling of aggrecan, M ± SD: 26.6 ± 0.1
[2]; [6]
  % Change with respect to the group treated with IL-1 (IL-1 = 100.0): 215.5* %
  Mean fluorescence intensity in the chondrocytes after labelling of aggrecan, M ± SD: 39.0 ± 0.2
[2]; [7]
  % Change with respect to the group treated with IL-1 (IL-1 = 100.0): 116.2* %
  Mean fluorescence intensity in the chondrocytes after labelling of aggrecan, M ± SD: 20.8 ± 1.2
[2]; [8]
  % Change with respect to the group treated with IL-1 (IL-1 = 100.0): 120.7* %
  Mean fluorescence intensity in the chondrocytes after labelling of aggrecan, M ± SD: 21.6 ± 1.1
[2]; [9]
  % Change with respect to the group treated with IL-1 (IL-1 = 100.0): 139.7* %
  Mean fluorescence intensity in the chondrocytes after labelling of aggrecan, M ± SD: 25.0 ± 1.4
[3]
  Effect on aggrecan degradation (band of aggrecan fragments labelled with antibody NITGE G1): aggrecan degradation is inhibited
